Where a SMILES comes first, the peptide text is derived from it. The star is where a group is joined. Cbz = O=C(OCc1ccccc1)*; OtBu = CC(C)(C)O*
Key:
[1] = test system: Mice calverial osteoblast; test: Apoptosis assay (Annexin V/PI, FACS) in serum deprived MCOs; type: cell-based; conditions: 10 nM, 24 h
Method: Annexin V/PI staining for fluorescence-activated cell sorting (FACS) analysis was carried out using Calbiochem Annexin V-FITC Apoptosis Detection Kit (Calbiochem, USA) according to manufacturer's instructions.

20 S proteasome = 20 S proteasome (Rattus norvegicus, UniProt P28075); test: 20 S proteasome activity assay in calvarial osteoblast cells; conditions: for inhibition of 20 S proteasomal activity: calvarial osteoblast cells
[2] = test system: Mice Calvarial osteoblasts (MCOs); test: Mineralization assay (Alizarin red-S); type: cell-based; conditions: 10 nM, 21 days, vs control group
Method: Mineralization assay was carried out to assess the mineralizing ability and thus bone formation of osteoblasts cells. […] At the end of the experiment, the cells were washed with PBS and fixed with paraformaldehyde (4%) in PBS for 15 minutes. Alizarin red-S stain was used for staining mineralized nodules, followed by extraction of the stain using 10% acetic acid and 10% ammonium hydroxide for colorimetric quantification at 405 nm.

[3] = Mundy GR et al, 2005; cited from earlier work
Smads = conditions: Ito y et al, 2011; cited from earlier work
[4] = test system: Mice primary osteoblast cells; test: Cell proliferation assay (direct cell count and BrdU); type: cell-based; conditions: 24 h
Method: Mice primary osteoblast cells were plated at a density of 2.5×10^5 cells/ml/well in 12 well plates at 37° C. […] The cells were trypsinized and viable cells were counted with a hemocytometer using trypan blue dye exclusion. Cell counts were performed in duplicate and repeated in three cultures. […] Cell proliferation was determined using BrdU ELISA (from Calbiochem, Darmstadt, Germany) using manufacturer's instructions. For the last 3h of the 24 h stimulation, the, cells were trypsinized and 2000 cells/well were seeded in a-MEM supplemented with 10% fetal bovine serum, and the cells were pulsed with BrdU. Absorbance at dual wavelength of 450-540 nm was measured with a microplate reader.

[5] = test system: Ovariectomized (OVx) Mice; test: In vivo efficacy of WFA on ovariectomized (OVx) mice, μCT; parameters: species or system Balb/c mice; conditions: doses 1, 5 and 10
Method: The intraperitoneal dose for iPTH (40 μg·kg^-1 for 3 days/week) used in this study as known anabolic agent. […] For dynamic histomorphometry measurements each animal was administered intraperitoneally with fluorochromes tetracycline (20 mg·kg^-1) on day 30 […] and calcein (20 mg·kg^-1) on day 60 (8 weeks) after the commencement of various treatments. After 8 weeks of treatment, all mice were euthanized and autopsied to collect bones (i.e., tibias and femurs) for measurement of bone parameter. […] BMCs were cultured in bone marrow differentiation medium to induce mineralization for 18 days. Mineralization was quantified as described. Alizarin red S stain was used for staining mineralized nodules, followed by extraction of the stain for quantification. […] The plasma samples were analyzed by HPLC according to reported method with slight modification. Sky Scan 1076 μCT scanner (Aartselaar, Belgium) was used to carryout μCT scanning of excised bones as described before. The bone samples were scanned at a resolution of 9 μm and reconstruction was done using the Sky Scan Nrecon software. The X-ray source was set at 50 kV and […], with a pixel size of 9 μm. A hundred projections were acquired over an angul arrange of 180°. […] Trabecular thickness (Tb.Th) and structure mode index (SMI) was calculated according to the method of Hildebrand and Ruegsegger. […]

uterus of OVx mice = test: Estrogenicity studies (uterine weight); type: in vivo; conditions: all doses
Method: The uterus of each mouse was weighed and then fixed in 4% paraformaldehyde. A middle segment of each uterus was dehydrated in ascending grades of isopropanol, cleared in xylene and sections of about 5 μm thickness was prepared. Haematoxylin and eosin staining was done of 5 μm transverse sections and representative images were captured. Leica Qwin-Semiautomatic Image Analysis software (Leica Microsystems GmbH) was used to measure total uterine area, luminal area and luminal epithelial height.

[6] = test system: Mice Calvarial osteoblasts (MCOs); test: Alkaline phosphatase (ALP) assay in mice calvarial osteoblasts; type: cell-based; conditions: for ALP production / ALP activity compared with control: osteoblast differentiation medium, 1 pM to 1 μM; for dose most effective in stimulating ALP activity: dose range 1 pM to 1 μM
Method: For each experiment, 1 to 2 day old […] were used to harvest 20 to 35 calvaria at room temperature (25° C.). Briefly, individual calvaria were surgically isolated from the skull, the sutures were segregated, and the adherent tissue material was cleaned by gentle scrapping. As described previously, the pooled calvarias were kept for repeated digestion (15 minutes/digestion) with 0.05% trypsin and 0.1% collagenase P to release the cells. First digestion was discarded and cells were collected from the next four digestions. These cells were cultured in a modified essential medium (a-MEM) containing 10% fetal calf serum (FCS) and 1% penicillin/streptomycin (complete growth medium). Cultures of MCOs were allowed to reach 80% confluence for the experiments.
For the measurement of ALP activity, MCOs at approximately 80% confluence were trypsinized, and 2×10^3 cells/well were seeded onto 96-well plates. […] At the end of incubation period, total ALP activity was measured using p-nitrophenylphosphate (PNPP) as substrate, and absorbance was read at 405 nm.

[7] = test system: serum osteocalcin in OVx mice; test: Bone turnover marker, serum osteocalcin EIA; type: in vivo; conditions: 60 days, vs OVx+vehicle
Text: Rat-MID™ Osteocalcin EIA (Immunodiagnostic, UK) performed using serum from treated and vehicle groups using manufacturer's protocol as provided in the kit.

[8] = test system: Mice Calvarial osteoblasts (MCOs); test: Quantitative real time PCR of osteogenic genes in MCOs; type: cell-based; conditions: 10 nM
Method: Cells were homogenized using 1 ml of TRIzol reagent (Invitrogen, Carlsbad, Calif., USA), and total RNA was extracted according to the manufacturer's protocol. cDNA was synthesized using RevertAid™ First Strand cDNA synthesis kit (#K1621 Fermentas, Canada) from 1 μg of total RNA. Quantitative real time PCR amplifications were performed in The LightCycler® 480 Real-Time PCR System (Roche Diagnostics, USA) using LightCycler SYBR Green (Roche Diagnostics, USA) according to the manufacturer's instruction. The sequences of primer sets for Smurf1, Smurf2, RunX2, BMP-2, alkaline phosphatase (ALP), osteocalcin (OCN), Collagen I (Coll) and GAPDH mRNAs, target sites on mRNAs and product sizes by PCR are shown in FIG. 6. The quantity of each sample was normalized using the CT (threshold cycle) value obtained for the GAPDH mRNA amplifications.

Mouse bone marrow cells = test: Osteoclast culture, real-time expression of TRAP and RANK; type: cell-based; conditions: bone marrow cultures with MCSF and RANKL, 6 days, vs control vehicle
Method: In vitro osteoclastogenesis was performed using standard protocol. Mouse bone marrow cells were flushed from femur using alpha-MEM. Cells were seeded in flask overnight in Osteoclast medium (alpha MEM, 10% FCS, antibiotic, EBSS, 10 ng/ml MCSF). […] The medium was replaced after every 48 hours. After 6 days of culture, the cells were washed with PBS and then fixed in 4% paraformaldehyde or used for RNA extraction using TRIZOL for analysis of TRAP, RANK mRNA levels by real-time PCR. Fixed cells were followed by TRAP staining using the standardized protocol.

[9] = test system: drill-hole injury in femur of Sham and OVx Balb/c mice; test: Fracture healing drill-hole study; type: in vivo
Text: Sixty adult Balb/c mice (18-20 g each) were taken and divided into six groups of […] for the study. Each group included 12 animals per group. […] Mice were left for 8 weeks for the OVx mice to develop osteopenia. After 8 weeks, drill-hole injury was created in both sham and OVx groups. In mid femur region the front skin was incised straight and longitudinally 1 cm in length under anesthetic condition. After splitting the muscle, periosteum was stripped to expose the femoral bone surface. A drill-hole injury was made, 1 cm above the knee joint by inserting a drill bit with a diameter of 0.1 mm in the anterior portion of the diaphysis of the bilateral femurs. […] Each animal received intraperitoneal administration of fluorochrome calcein (20 mg·kg^−1) 24 h before autopsy. After 21 days of treatment as described above, all mice were euthanized and autopsied to collect their femurs for the measurement of bone micro architectural parameters at the drill hole site. Bones were embedded in acrylic material and 50 μm sections were made using an Isomet BoneCutter (Buehler, Lake Bluff, Ill. USA) and photographs were taken under confocal microscope LSM 510 Meta, Carl Zeiss, USA) aided with appropriate filters. The intensity of calcein binding, which is an indicator of the amount of new mineral deposition, was calculated using Carl Zeiss A M 4.2 image-analysis software.

CC(C)C[C@H](NC(=O)[C@H](Cc1ccccc1)NC(=O)c1cnccn1)B(O)O [Bzb, Bortezomib, reference compound]
apoptosis of serum deprived MCOs ([1]; 0.5% FBS): comparable to standard control Bortizomib (Bzb)
inhibition of 20 S proteasomal activity (20 S proteasome): comparable to Bzb
mineralization (Alizarin-S dye extraction) [2]: comparable to Bzb treatment

CC[C@H](C)[C@H](NC(=O)[C@H]([C@@H](C)CC)N(C)C(C)=O)C(=O)N[C@H](C(=O)N[C@@H](CC(C)C)C(=O)[C@@]1(C)CO1)[C@@H](C)O [Epoxomicin]
Activity: bone volume and bone formation rate [3]: Increases bone

CC(=O)N[C@@H](CSC(=O)[C@]1([C@@H](O)C(C)C)NC(=O)[C@H](C)[C@@H]1O)C(=O)O [Lactacystin, reference compound]
Activity: activity of Smads (in vitro) (Smads): Increases
inhibition of 20 S proteasomal activity (20 S proteasome): significantly inhibits the 20 S proteasomal activity

CC[C@H](C)[C@H](NC(=O)OCc1ccccc1)C(=O)N[C@@H](CCC(=O)OC(C)(C)C)C(=O)N[C@@H](C)C(=O)N[C@H](C=O)CC(C)C [PSI] (Cbz-IE(OtBu)AL-aldehyde)
Activity: bone volume and bone formation rate [3]: Increases bone

CC1=C(CO)C(=O)O[C@@H]([C@@H](C)[C@H]2CC[C@H]3[C@@H]4C[C@H]5O[C@]56[C@@H](O)C=CC(=O)[C@]6(C)[C@H]4CC[C@]23C)C1 [WFA, Withaferin A]
concentration that maximally stimulated MCO proliferation [4]: 10 nM
osteoblast proliferation (direct cell count and BrdU incorporation) ([4]; vs control vehicle set as 100): concentration dependently stimulated osteoblast proliferation
apoptotic cells (early and late) ([1]; serum deprived (0.5% FBS) MCOs): 3%
most effective dose (BV/TV, inter-dose comparison) [5]: 10 mg/kg/day
uterine weight (uterus of OVx mice): uterine weight comparable to OVx group
earliest time of inhibition of proteasomal 20 S subunit activity (20 S proteasome; 10 nM): 3 h
maximum inhibition of proteasomal 20 S subunit activity (20 S proteasome; 10 nM, at 6 h, compared with positive control): 40-50%
ALP activity compared to Bortizomib ([6]; 10 nM, 48 h): ~3 fold
ALP production / ALP activity compared with control ([6]; 48 h): significantly increased ALP production
dose most effective in stimulating ALP activity [6]: 10 nM
serum osteocalcin (OCN) levels [7]: significant reduction in the levels of OCN
mineralization (Alizarin-S dye extraction) [2]: significant increase in mineralization
mRNA expression of collagen I [8]: stimulated mRNA expression of collagen I
expression of osteogenic genes RunX2, OCN and Col I ([8]; normalized to GAPDH): increased expression of RunX2, OCN and Col I
mRNA levels of TRAP and RANK (Mouse bone marrow cells): significantly reduced mRNA levels of TRAP and RANK
callus mineralization / bridging of defect ([9]; 5 mg kg-1 d-1, after day 11 post drilling): predominantly occupied mineralized callus, and the defect region was partially bridged
callus mineralization / bridging of defect ([9]; 10 mg kg-1 d-1, compared with 5 mg kg-1 d-1): more increased mineralized callus within the intra medulla region to be remodeled to completely bridge the defect
mineral deposition (intensity of calcein labeling in the drill hole) ([9]; 5 and 10 mg kg-1 d-1, 21 days, vs vehicle): increased mineral deposition
mineral deposition in OVx mice ([9]; OVx mice, 5 and 10 mg kg-1 d-1, vs OVx vehicle): increased mineral deposition in OVx mice

CC1=C(C)C(=O)O[C@@H]([C@@H](C)[C@@]2(O)CC[C@H]3[C@@H]4[C@@H]5O[C@@H]5[C@@]5(O)CC=CC(=O)[C@]5(C)[C@H]4CC[C@@]32C)C1 [WN, Withanone]
ALP production / ALP activity compared with control ([6]; 48 h): did not stimulate ALP activity significantly
dose most effective in stimulating ALP activity [6]: 10 nM
mRNA expression of collagen I [8]: stimulated mRNA expression of collagen I

CC1=C(C)C(=O)O[C@@H]([C@](C)(O)[C@H]2CC[C@H]3[C@@H]4[C@@H]5O[C@@H]5[C@@]5(O)CC=CC(=O)[C@]5(C)[C@H]4CC[C@]23C)C1 [WNA, Withanolide A]
ALP production / ALP activity compared with control ([6]; 48 h): significantly increased ALP production
dose most effective in stimulating ALP activity [6]: 10 nM
mRNA expression of collagen I [8]: stimulated mRNA expression of collagen I

From patent publication US10596115B2, “Pharmaceutical composition for the treatment of diminution of bone tissue” (Council of Scientific & Industrial Research, priority 2013, dated 2020)
